Measurements reported in US7419976B2, “Diazepanes derivatives useful as IFA inhibitors” (Novartis AG, priority 2003, dated 2008).

Experiments:
[1] = system: allergic contact dermatitis in mice; assay: Test Example: inhibition of allergic contact dermatitis (ACD) in vivo, pinnal weight and MPO activity; details: oral single dose 0.01-10.0 mg/kg
Protocol: Groups of 8 female mice are sensitized epicutaneously with 50 μl of 2% oxazolone on the shaved ventral abdomen (day 1) and challenged with 10 μl of 0.2% oxazolone on the inner surface of the right ear (day 8). The unchallenged left ears serve as normal controls and dermatitis is evaluated from the difference in pinnal weight which is taken as a measure of inflammatory swelling (day 9). In addition, activity of myeloperoxidase (MPO) serving as a measure of leukocyte influx in ear homogenates are determined as described by Bradley et al., J. Invest. Dermatol; 78:206-209 (1982). The animals are treated orally 2 hours after challenge with the test compound of example 10. Activity is calculated as the percentage of inhibition of inflammatory auricular swelling and of MPO activity relative to animals treated with the vehicle alone. For comparison mice are treated intraperitoneally with 100 μl monoclonal anti-mouse LFA-1 antibody 1 hour before challenge and evaluated as described.

[2] = target: T1, LFA-1/ICAM-1 (Homo sapiens, UniProt P20701); assay: Cell free assay: binding of soluble human ICAM-1 to immobilized human LFA-1; details: immobilized human LFA-1, biotinylated ICAM-1, read-out: IC50, inhibition of adhesion of LFA-1 to ICAM-1
T1 construct: endogenous in cells; ICAM-1-Cκ fusion: made in house in the baculovirus system
T1 sequence (P20701 26-1170): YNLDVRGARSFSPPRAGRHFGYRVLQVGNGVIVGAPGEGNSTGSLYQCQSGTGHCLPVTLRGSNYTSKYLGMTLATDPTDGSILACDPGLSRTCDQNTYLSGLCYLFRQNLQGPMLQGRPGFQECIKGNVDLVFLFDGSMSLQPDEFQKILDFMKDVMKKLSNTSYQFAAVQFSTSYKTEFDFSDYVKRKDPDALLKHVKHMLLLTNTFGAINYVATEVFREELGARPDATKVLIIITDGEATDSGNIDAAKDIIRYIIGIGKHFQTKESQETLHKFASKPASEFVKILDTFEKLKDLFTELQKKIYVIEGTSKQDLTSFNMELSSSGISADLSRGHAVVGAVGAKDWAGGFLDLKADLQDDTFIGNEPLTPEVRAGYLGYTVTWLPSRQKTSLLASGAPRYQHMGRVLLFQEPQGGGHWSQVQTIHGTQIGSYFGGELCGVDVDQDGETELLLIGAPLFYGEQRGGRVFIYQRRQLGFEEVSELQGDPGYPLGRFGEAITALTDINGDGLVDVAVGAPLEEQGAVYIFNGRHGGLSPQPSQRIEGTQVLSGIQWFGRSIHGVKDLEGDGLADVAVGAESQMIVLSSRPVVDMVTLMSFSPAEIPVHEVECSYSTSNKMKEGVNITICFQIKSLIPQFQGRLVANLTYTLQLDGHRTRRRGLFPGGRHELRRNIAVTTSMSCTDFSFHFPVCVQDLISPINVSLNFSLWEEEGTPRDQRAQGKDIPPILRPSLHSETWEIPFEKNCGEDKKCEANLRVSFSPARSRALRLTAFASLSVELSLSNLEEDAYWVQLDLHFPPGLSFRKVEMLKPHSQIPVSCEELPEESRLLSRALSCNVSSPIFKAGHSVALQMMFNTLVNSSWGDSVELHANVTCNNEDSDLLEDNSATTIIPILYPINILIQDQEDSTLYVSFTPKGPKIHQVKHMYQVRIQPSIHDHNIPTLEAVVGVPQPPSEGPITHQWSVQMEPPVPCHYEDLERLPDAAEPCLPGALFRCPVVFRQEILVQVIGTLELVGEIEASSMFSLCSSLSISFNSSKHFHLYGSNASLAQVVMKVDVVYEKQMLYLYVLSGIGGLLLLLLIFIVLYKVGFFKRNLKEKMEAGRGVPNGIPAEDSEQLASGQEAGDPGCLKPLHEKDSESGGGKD
T1 sequence (P05107 23-769 partner): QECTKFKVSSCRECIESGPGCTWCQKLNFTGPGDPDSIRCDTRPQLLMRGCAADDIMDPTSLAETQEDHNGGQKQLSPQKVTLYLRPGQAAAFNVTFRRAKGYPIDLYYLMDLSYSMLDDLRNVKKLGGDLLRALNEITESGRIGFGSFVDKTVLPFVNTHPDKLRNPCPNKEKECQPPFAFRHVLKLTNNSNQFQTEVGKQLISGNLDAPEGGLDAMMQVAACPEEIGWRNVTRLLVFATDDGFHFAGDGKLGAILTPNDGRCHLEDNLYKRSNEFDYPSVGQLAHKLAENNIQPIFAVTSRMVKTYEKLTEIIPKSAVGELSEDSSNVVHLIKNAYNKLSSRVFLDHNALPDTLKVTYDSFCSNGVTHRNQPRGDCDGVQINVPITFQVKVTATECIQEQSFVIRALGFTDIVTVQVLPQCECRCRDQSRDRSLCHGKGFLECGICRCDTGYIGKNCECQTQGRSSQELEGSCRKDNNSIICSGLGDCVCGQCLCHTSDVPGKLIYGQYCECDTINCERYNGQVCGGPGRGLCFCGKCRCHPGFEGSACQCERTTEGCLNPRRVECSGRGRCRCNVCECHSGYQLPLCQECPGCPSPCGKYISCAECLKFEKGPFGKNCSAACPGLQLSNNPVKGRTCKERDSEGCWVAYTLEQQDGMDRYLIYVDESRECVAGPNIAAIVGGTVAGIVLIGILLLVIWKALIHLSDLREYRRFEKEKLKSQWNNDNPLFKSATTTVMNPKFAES
Protocol: The assay determines the binding of soluble human ICAM-1 to immobilized human LFA-1. LFA-1 is purified from JY cells, a human lymphoblastoid B cell-line, by immunoaffinity chromatography analogously as described by Dustin et al., J. Immunol. 148, 2654-2663, 1992. ICAM-1 mouse Cκ fusion protein (ICAM-1) is produced using the baculovirus system as described by Weitz-Schmidt et al., Anal. Biochem. 238, 184-190, 1996. Purified LFA-1 is diluted 1:20 in phosphate buffered saline (PBS) containing 2 mM MgCl2, pH 7.4 and coated onto microtiter plates (Nunc) at 37° for 3 hours. Plates are blocked with 1% heat-treated bovine serum albumin in PBS for 2 hours at 37° followed by a washing step using PBS, 2 mM MgCl2, 1% fetal calf serum, pH 7.4 (assay buffer). Compounds of the present invention (10 mM solution in DMSO) are diluted in assay buffer and added to the plates. Biotinylated recombinant ICAM-1 in assay buffer (6 μg/ml) is added and allowed to bind at 37° for one hour. After incubation, wells are washed with assay buffer. Streptavidin-peroxidase diluted 1:5000 in assay buffer is added and incubated for 45 min at 37°. […] The reaction is stopped after 20 minutes and bound ICAM-1 is determined by measuring the optical density at 405 nm in a microplate reader.

[3] = system: allergic contact dermatitis in NMRI mice; assay: Allergic contact dermatitis (ACD) in vivo test system, oxazolone, auricular weight; details: p.o., 0.03 mg/kg, 2 hours after challenge
Protocol: Groups of 8 female NMRI mice are sensitized on the shaved abdomen with 50 μl of oxazolone (2% in acetone) and challenged with 10 μl of 0.2% oxazolone on the inner surface of the right ear 7 days later. The unchallenged left ears serve as normal controls and dermatitis is evaluated from the individual differences in auricular weights, which are taken as a measure of inflammatory swelling 24 hours after the challenge. Dermatitis is evaluated in test- and control groups. The test groups are treated with the test compounds orally (2 hours after challenge), the controls are treated similarly with the vehicles alone. For oral administration the compounds are administered in an oil in H2O emulsion. The data of the test- and the vehicle-treated control groups are statistically analysed by ANOVA followed by Dunnet T-test (normal distribution or data) or by H and U-test, respectively. […] For example, compound of Example 14 has an inhibiting effect in this assay of >30% when administered p.o. at a dose of 0.03 mg/kg.

SMILES | inhibition of the inflammatory response ([1]; 2 hours after challenge) | inhibition of MPO activity versus inhibition of swelling ([1]; ear homogenates) | IC50 [2] | inhibiting effect in allergic contact dermatitis (auricular swelling) [3]
C[C@@H]1CCN([C@H](Cc2cccc3ccccc23)C(N)=O)C(=O)[C@H](c2ccc(F)c(Cl)c2)N1C(=O)Cc1ccc2ncccc2c1 [Example 10, (R)-2-[(3S,5R)-3-(3-Chloro-4-fluoro-phenyl)-5-methyl-2-oxo-4-(2-quinolin-6-yl-acetyl)-[1,4]diazepan-1-yl]-3-naphthalen-1-yl-propionamide] | 40-50% | Inhibition of swelling compared with inhibition of MPO activity is observed |  | 
CC1CCN(C(Cc2cccc3ccccc23)C(N)=O)C(=O)C(c2cccc(F)c2)N1C(=O)Cc1ccc2c(c1)OCO2 [Example 13, (R)-2-[4-(2-Benzo[1,3]dioxol-5-yl-acetyl)-3,5-cis-3-(3-fluoro-phenyl)-5-methyl-2-oxo-[1,4]diazepan-1-yl]-3-naphthalen-1-yl-propionamide] |  |  | 0.43 µM | 
C[C@@H]1CCN([C@H](Cc2cccc3ccccc23)C(N)=O)C(=O)[C@H](c2cccc(Cl)c2)N1C(=O)Cc1ccc2c(c1)OCO2 [Example 14, (R)-2-[(3S,5R)-4-(2-Benzo[1,3]dioxol-5-yl-acetyl)-3-(3-chloro-phenyl)-5-methyl-2-oxo-[1,4]diazepan-1-yl]-3-naphthalen-1-yl-propionamide] |  |  | 0.09 µM | > 30%
